Test results reported in BigSolDB 2.1.

**Q.** What does the source list for `O=c1cc(CO)occ1O`?
**A.** solubility (mole fraction) (in THF, 278.15 K): 0.00384; solubility (mole fraction) (in THF, 283.15 K): 0.00435; solubility (mole fraction) (in THF, 288.15 K): 0.00541; solubility (mole fraction) (in THF, 293.15 K): 0.00663; solubility (mole fraction) (in THF, 298.15 K): 0.00799; solubility (mole fraction) (in THF, 303.15 K): 0.00961; solubility (mole fraction) (in THF, 308.15 K): 0.0116; solubility (mole fraction) (in THF, 313.15 K): 0.0134; solubility (mole fraction) (in THF, 318.15 K): 0.017; solubility (mole fraction) (in THF, 323.15 K): 0.0199; solubility (mole fraction) (in acetonitrile, 278.15 K): 0.00062; solubility (mole fraction) (in acetonitrile, 283.15 K): 0.00078; solubility (mole fraction) (in acetonitrile, 288.15 K): 0.00097; solubility (mole fraction) (in acetonitrile, 293.15 K): 0.00122; solubility (mole fraction) (in acetonitrile, 298.15 K): 0.00151; solubility (mole fraction) (in acetonitrile, 303.15 K): 0.00184; solubility (mole fraction) (in acetonitrile, 308.15 K): 0.00226; solubility (mole fraction) (in acetonitrile, 313.15 K): 0.00276; solubility (mole fraction) (in acetonitrile, 318.15 K): 0.00341; solubility (mole fraction) (in acetonitrile, 323.15 K): 0.00424; solubility (mole fraction) (in isopropanol, 278.15 K): 0.00213; solubility (mole fraction) (in isopropanol, 283.15 K): 0.00266; solubility (mole fraction) (in isopropanol, 288.15 K): 0.0032; solubility (mole fraction) (in isopropanol, 293.15 K): 0.00392; solubility (mole fraction) (in isopropanol, 298.15 K): 0.00478; solubility (mole fraction) (in isopropanol, 303.15 K): 0.00557; solubility (mole fraction) (in isopropanol, 308.15 K): 0.00667; solubility (mole fraction) (in isopropanol, 313.15 K): 0.00814; solubility (mole fraction) (in isopropanol, 318.15 K): 0.00974; solubility (mole fraction) (in isopropanol, 323.15 K): 0.0116; solubility (mole fraction) (in methyl acetate, 278.15 K): 0.00085; solubility (mole fraction) (in methyl acetate, 283.15 K): 0.0011; solubility (mole fraction) (in methyl acetate, 288.15 K): 0.00141; solubility (mole fraction) (in methyl acetate, 293.15 K): 0.00172; solubility (mole fraction) (in methyl acetate, 298.15 K): 0.00213; solubility (mole fraction) (in methyl acetate, 303.15 K): 0.0026; solubility (mole fraction) (in methyl acetate, 308.15 K): 0.00317; solubility (mole fraction) (in methyl acetate, 313.15 K): 0.00385; solubility (mole fraction) (in methyl acetate, 318.15 K): 0.00467; solubility (mole fraction) (in methyl acetate, 323.15 K): 0.00556; solubility (mole fraction) (in n-butanol, 278.15 K): 0.00193; solubility (mole fraction) (in n-butanol, 283.15 K): 0.00242; solubility (mole fraction) (in n-butanol, 288.15 K): 0.00289; solubility (mole fraction) (in n-butanol, 293.15 K): 0.00364; solubility (mole fraction) (in n-butanol, 298.15 K): 0.00452; solubility (mole fraction) (in n-butanol, 303.15 K): 0.00538; solubility (mole fraction) (in n-butanol, 308.15 K): 0.00646; solubility (mole fraction) (in n-butanol, 313.15 K): 0.00779; solubility (mole fraction) (in n-butanol, 318.15 K): 0.00935; solubility (mole fraction) (in n-butanol, 323.15 K): 0.011; solubility (mole fraction) (in n-pentanol, 278.15 K): 0.00185; solubility (mole fraction) (in n-pentanol, 283.15 K): 0.00222; solubility (mole fraction) (in n-pentanol, 288.15 K): 0.0028; solubility (mole fraction) (in n-pentanol, 293.15 K): 0.00392; solubility (mole fraction) (in n-pentanol, 298.15 K): 0.00417; solubility (mole fraction) (in n-pentanol, 303.15 K): 0.00506; solubility (mole fraction) (in n-pentanol, 308.15 K): 0.00611; solubility (mole fraction) (in n-pentanol, 313.15 K): 0.00733; solubility (mole fraction) (in n-pentanol, 318.15 K): 0.00882; solubility (mole fraction) (in n-pentanol, 323.15 K): 0.0106; solubility (mole fraction) (in sec-butanol, 278.15 K): 0.00202; solubility (mole fraction) (in sec-butanol, 283.15 K): 0.00245; solubility (mole fraction) (in sec-butanol, 288.15 K): 0.00315; solubility (mole fraction) (in sec-butanol, 293.15 K): 0.00387; solubility (mole fraction) (in sec-butanol, 298.15 K): 0.00465; solubility (mole fraction) (in sec-butanol, 303.15 K): 0.0057; solubility (mole fraction) (in sec-butanol, 308.15 K): 0.0069; solubility (mole fraction) (in sec-butanol, 313.15 K): 0.00817; solubility (mole fraction) (in sec-butanol, 318.15 K): 0.00981; solubility (mole fraction) (in sec-butanol, 323.15 K): 0.0117
